Source: ChEMBL document CHEMBL1201861, “Genomics of Drug Sensitity in Cancer screening data, Wellcome Trust Sanger Institute”

Legend:
Assay in all cases: cells
MV4-11 = assay type: functional, cell-based, Homo sapiens, MV-4-11;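 also: cell viability readout measuring growth inhibition of human MV-4-11 cells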
Description: SANGER: Inhibition of human MV-4-11 cell growth in a cell viability assay.

HEL = assay type: functional, cell-based, Homo sapiens;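 also: growth inhibition of HEL cells, read out with a cell viability assay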
Description: SANGER: Inhibition of human HEL cell growth in a cell viability assay.

ES6 = assay type: functional, cell-based, Homo sapiens;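 also: growth inhibition of human ES6 cells, read out with a cell viability assay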
Description: SANGER: Inhibition of human ES6 cell growth in a cell viability assay.

J-RT3-T3-5 = assay type: functional, cell-based, Homo sapiens;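 also: cell viability assay measuring growth inhibition of human J-RT3-T3-5 cells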
Description: SANGER: Inhibition of human J-RT3-T3-5 cell growth in a cell viability assay.

D283 Med = assay type: functional, cell-based, Homo sapiens
Description: SANGER: Inhibition of human D-283MED cell growth in a cell viability assay.

ATN-1 = assay type: functional, cell-based, Homo sapiens;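 also: growth inhibition of human ATN-1 cells, read out with a cell viability assay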
Description: SANGER: Inhibition of human ATN-1 cell growth in a cell viability assay.

CTV-1 = assay type: functional, cell-based, Homo sapiens;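 also: growth inhibition of the cell line, read out with a cell viability assay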
Description: SANGER: Inhibition of human CTV-1 cell growth in a cell viability assay.

LB373-MEL-D = assay type: functional, cell-based, Homo sapiens;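 also: growth inhibition of the cell line, read out in a cell viability assay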
Description: SANGER: Inhibition of human LB373-MEL-D cell growth in a cell viability assay.

NTERA-2-cl-D1 = assay type: functional, cell-based, Homo sapiens;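 also: inhibition of cell growth, measured with a cell viability assay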
Description: SANGER: Inhibition of human NTERA-S-cl-D1 cell growth in a cell viability assay.

LU-139 = assay type: functional, cell-based, Homo sapiens
Description: SANGER: Inhibition of human LU-139 cell growth in a cell viability assay.

KNS-42 = assay type: functional, cell-based, Homo sapiens;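 also: growth inhibition of KNS-42 cells, read out with a cell viability assay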
Description: SANGER: Inhibition of human KNS-42 cell growth in a cell viability assay.

HC-1 = assay type: functional, cell-based, Homo sapiens;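 also: growth inhibition of HC-1 cells measured by a cell viability assay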
Description: SANGER: Inhibition of human HC-1 cell growth in a cell viability assay.

KM12 = assay type: functional, cell-based, Homo sapiens;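 also: KM12 cell growth inhibition, read out with a cell viability assay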
Description: SANGER: Inhibition of human KM12 cell growth in a cell viability assay.

SNU1 = assay type: functional, cell-based, Homo sapiens; settings: Homo sapiens, SNU1;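 also: growth inhibition of human NCI-SNU-1 cells, measured with a cell viability assay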
Description: SANGER: Inhibition of human NCI-SNU-1 cell growth in a cell viability assay.

HCC2218 = assay type: functional, cell-based, Homo sapiens;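 also: cell viability assay read-out, with IC50 given as the concentration that inhibits growth of the cell line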
Description: SANGER: Inhibition of human HCC2218 cell growth in a cell viability assay.

SJSA-1 = assay type: functional, cell-based, Homo sapiens;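 also: growth inhibition of human SJSA-1 cells, read out through a cell viability measurement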
Description: SANGER: Inhibition of human SJSA-1 cell growth in a cell viability assay.

NCI-H1838 = assay type: functional, cell-based, Homo sapiens;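 also: growth inhibition of NCI-H1838 cells, determined with a cell viability readout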
Description: SANGER: Inhibition of human NCI-H1838 cell growth in a cell viability assay.

ES3 = assay type: functional, cell-based, Homo sapiens;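 also: growth inhibition of ES3 cells, read out with a cell viability assay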
Description: SANGER: Inhibition of human ES3 cell growth in a cell viability assay.

SK-NEP-1 = assay type: functional, cell-based, Homo sapiens;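 also: growth inhibition of human SK-NEP-1 cells, read out by a cell viability assay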
Description: SANGER: Inhibition of human SK-NEP-1 cell growth in a cell viability assay.

SW684 = assay type: functional, cell-based, Homo sapiens;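 also: growth inhibition of human SW684 cells, measured by a cell viability assay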
Description: SANGER: Inhibition of human SW684 cell growth in a cell viability assay.

NCI-H226 = assay type: functional, cell-based, Homo sapiens;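 also: cell viability read-out used to gauge growth inhibition of the cells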
Description: SANGER: Inhibition of human NCI-H226 cell growth in a cell viability assay.

EOL1 = assay type: functional, cell-based, Homo sapiens;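 also: growth inhibition of EoL-1 cells, read out by a cell viability assay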
Description: SANGER: Inhibition of human EoL-1-cell cell growth in a cell viability assay.

KY821 = assay type: functional, cell-based, Homo sapiens;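 also: growth inhibition of human KY821 cells, read out by a cell viability assay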
Description: SANGER: Inhibition of human KY821 cell growth in a cell viability assay.

LS-411N = assay type: functional, cell-based, Homo sapiens
NCI-H69 = assay type: functional, cell-based, Homo sapiens;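 also: growth inhibition of the cell line, read out with a cell viability assay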
Description: SANGER: Inhibition of human NCI-H69 cell growth in a cell viability assay.

ES5 = assay type: functional, cell-based, Homo sapiens;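 also: growth inhibition of human ES5 cells, read out by a cell viability assay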
Description: SANGER: Inhibition of human ES5 cell growth in a cell viability assay.

EC-GI-10 = assay type: functional, cell-based, Homo sapiens
Description: SANGER: Inhibition of human EC-GI-10 cell growth in a cell viability assay.

MFM-223 = assay type: functional, cell-based, Homo sapiens
Description: SANGER: Inhibition of human MFM-223 cell growth in a cell viability assay.

A3-KAW = assay type: functional, cell-based, Homo sapiens;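 also: growth inhibition of human A3-KAW cells, read out with a cell viability assay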
Description: SANGER: Inhibition of human A3-KAW cell growth in a cell viability assay.

ES4 = assay type: functional, cell-based, Homo sapiens;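 also: growth inhibition of human ES4 cells, read out by a cell viability assay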
Description: SANGER: Inhibition of human ES4 cell growth in a cell viability assay.

KNS-81-FD = assay type: functional, cell-based, Homo sapiens;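 also: growth inhibition of KNS-81-FD cells, read out with a cell viability assay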
Description: SANGER: Inhibition of human KNS-81-FD cell growth in a cell viability assay.

NOS-1 = assay type: functional, cell-based, Homo sapiens;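 also: growth inhibition of the human NOS-1 cell line, read out with a cell viability assay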
Description: SANGER: Inhibition of human NOS-1 cell growth in a cell viability assay.

HAL-01 = assay type: functional, cell-based, Homo sapiens;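 also: growth inhibition of human HAL-01 cells, read out with a cell viability assay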
Description: SANGER: Inhibition of human HAL-01 cell growth in a cell viability assay.

NCI-H720 = assay type: functional, cell-based, Homo sapiens;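 also: growth inhibition of human NCI-H720 cells determined by a cell viability assay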
Description: SANGER: Inhibition of human NCI-H720 cell growth in a cell viability assay.

COLO-684 = assay type: functional, cell-based, Homo sapiens
Description: SANGER: Inhibition of human COLO-684 cell growth in a cell viability assay.

TE-10 = assay type: functional, cell-based, Homo sapiens;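 also: growth inhibition of TE-10 cells, measured by a cell viability assay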
Description: SANGER: Inhibition of human TE-10 cell growth in a cell viability assay.

CAS-1 = assay type: functional, cell-based, Homo sapiens;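 also: growth inhibition of CAS-1 cells, measured with a cell viability assay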
Description: SANGER: Inhibition of human CAS-1 cell growth in a cell viability assay.

LB771-HNC = assay type: functional, cell-based, Homo sapiens;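 also: growth inhibition of LB771-HNC human cells, read out with a cell viability assay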
Description: SANGER: Inhibition of human LB771-HNC cell growth in a cell viability assay.

DSH1 = assay type: functional, cell-based, Homo sapiens;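 also: growth inhibition of human DSH1 cells, measured with a cell viability readout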
Description: SANGER: Inhibition of human DSH1 cell growth in a cell viability assay.

MOLT-16 = assay type: functional, cell-based, Homo sapiens;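 also: growth inhibition of human MOLT-16 cells, read out with a cell viability assay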
Description: SANGER: Inhibition of human MOLT-16 cell growth in a cell viability assay.

SK-LMS-1 = assay type: functional, cell-based, Homo sapiens;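 also: growth inhibition of human SK-LMS-1 cells, read out with a cell viability assay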
Description: SANGER: Inhibition of human SK-LMS-1 cell growth in a cell viability assay.

EKVX = assay type: functional, cell-based, Homo sapiens;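 also: growth inhibition of human EKVX cells, read out with a cell viability assay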
Description: SANGER: Inhibition of human EKVX cell growth in a cell viability assay.

COLO-800 = assay type: functional, cell-based, Homo sapiens;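 also: growth inhibition of COLO-800 cells, read out with a cell viability assay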
Description: SANGER: Inhibition of human COLO-800 cell growth in a cell viability assay.

HD-MY-Z = assay type: functional, cell-based, Homo sapiens;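 also: growth inhibition of HD-MY-Z cells, read out with a cell viability assay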
Description: SANGER: Inhibition of human HD-MY-Z cell growth in a cell viability assay.

KS-1 = assay type: functional, cell-based, Homo sapiens;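 also: growth inhibition of KS-1 cells, read out with a cell viability assay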
Description: SANGER: Inhibition of human KS-1 cell growth in a cell viability assay.

LS-1034 = assay type: functional, cell-based, Homo sapiens
Description: SANGER: Inhibition of human LS-1034 cell growth in a cell viability assay.

TK-10 = assay type: functional, cell-based, Homo sapiens;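 also: growth inhibition of TK-10 cells, read out in a cell viability assay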
Description: SANGER: Inhibition of human TK10 cell growth in a cell viability assay.

TE-11 = assay type: functional, cell-based, Homo sapiens;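 also: growth inhibition of human TE-11 cells, read out by a cell viability assay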
Description: SANGER: Inhibition of human TE-11 cell growth in a cell viability assay.

KLE = assay type: functional, cell-based, Homo sapiens;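 also: growth inhibition of human KLE cells, read out with a cell viability assay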
Description: SANGER: Inhibition of human KLE cell growth in a cell viability assay.

CC[C@H](CO)Nc1nc(NCc2ccccc2)c2ncn(C(C)C)c2n1 [SELICICLIB]
IC50 (MV4-11; Homo sapiens, MV4-11): > 16 µM | IC50 (HEL; Homo sapiens, HEL): > 16 µM | IC50 (ES6; Homo sapiens, ES6): > 16 µM | IC50 (J-RT3-T3-5; Homo sapiens, J-RT3-T3-5): > 16 µM | IC50 (D283 Med; Homo sapiens, D283 Med): > 16 µM | IC50 (ATN-1; Homo sapiens, ATN-1): > 16 µM | IC50 (CTV-1; Homo sapiens, CTV-1): > 16 µM | IC50 (LB373-MEL-D; Homo sapiens, LB373-MEL-D): > 16 µM | IC50 (NTERA-2-cl-D1; Homo sapiens, NTERA-2-cl-D1): > 16 µM | IC50 (LU-139; Homo sapiens, LU-139): > 16 µM | IC50 (KNS-42; Homo sapiens, KNS-42): > 16 µM | IC50 (HC-1; Homo sapiens, HC-1): > 16 µM | IC50 (KM12; Homo sapiens, KM12): > 16 µM | IC50 (SNU1): > 16 µM | IC50 (HCC2218; Homo sapiens, HCC2218): > 16 µM | IC50 (SJSA-1; Homo sapiens, SJSA-1): > 16 µM | IC50 (NCI-H1838; Homo sapiens, NCI-H1838): > 16 µM | IC50 (ES3; Homo sapiens, ES3): > 16 µM | IC50 (SK-NEP-1; Homo sapiens, SK-NEP-1): > 16 µM | IC50 (SW684; Homo sapiens, SW684): > 16 µM | IC50 (NCI-H226; Homo sapiens, NCI-H226): > 16 µM | IC50 (EOL1; Homo sapiens, EOL1): > 16 µM | IC50 (KY821; Homo sapiens, KY821): > 16 µM | IC50 (LS-411N; Homo sapiens, LS-411N): > 16 µM | IC50 (NCI-H69; Homo sapiens, NCI-H69): > 16 µM | IC50 (ES5; Homo sapiens, ES5): > 16 µM | IC50 (EC-GI-10; Homo sapiens, EC-GI-10): > 16 µM | IC50 (MFM-223; Homo sapiens, MFM-223): > 16 µM | IC50 (A3-KAW; Homo sapiens, A3-KAW): 5.76 µM | IC50 (ES4; Homo sapiens, ES4): > 16 µM | IC50 (KNS-81-FD; Homo sapiens, KNS-81-FD): > 16 µM | IC50 (NOS-1; Homo sapiens, NOS-1): > 16 µM | IC50 (HAL-01; Homo sapiens, HAL-01): > 16 µM | IC50 (NCI-H720; Homo sapiens, NCI-H720): > 16 µM | IC50 (COLO-684; Homo sapiens, COLO-684): > 16 µM | IC50 (TE-10; Homo sapiens, TE-10): > 16 µM | IC50 (CAS-1; Homo sapiens, CAS-1): > 16 µM | IC50 (LB771-HNC; Homo sapiens, LB771-HNC): > 16 µM | IC50 (DSH1; Homo sapiens, DSH1): > 16 µM | IC50 (MOLT-16; Homo sapiens, MOLT-16): > 16 µM | IC50 (SK-LMS-1; Homo sapiens, SK-LMS-1): > 16 µM | IC50 (EKVX; Homo sapiens, EKVX): > 16 µM | IC50 (COLO-800; Homo sapiens, COLO-800): > 16 µM | IC50 (HD-MY-Z; Homo sapiens, HD-MY-Z): > 16 µM | IC50 (KS-1; Homo sapiens, KS-1): 9.46 µM | IC50 (LS-1034; Homo sapiens, LS-1034): > 16 µM | IC50 (TK-10; Homo sapiens, TK-10): > 16 µM

CS(=O)(=O)c1ccc(C(=O)Nc2ccc(Cl)c(-c3ccccn3)c2)c(Cl)c1 [VISMODEGIB]
IC50 (MV4-11; Homo sapiens, MV4-11): > 10 µM | IC50 (HEL; Homo sapiens, HEL): > 10 µM | IC50 (ES6; Homo sapiens, ES6): > 10 µM | IC50 (J-RT3-T3-5; Homo sapiens, J-RT3-T3-5): > 10 µM | IC50 (D283 Med; Homo sapiens, D283 Med): > 10 µM | IC50 (ATN-1; Homo sapiens, ATN-1): > 10 µM | IC50 (CTV-1; Homo sapiens, CTV-1): > 10 µM | IC50 (LB373-MEL-D; Homo sapiens, LB373-MEL-D): > 10 µM | IC50 (TE-11; Homo sapiens, TE-11): > 10 µM | IC50 (NTERA-2-cl-D1; Homo sapiens, NTERA-2-cl-D1): > 10 µM | IC50 (LU-139; Homo sapiens, LU-139): > 10 µM | IC50 (KNS-42; Homo sapiens, KNS-42): > 10 µM | IC50 (HC-1; Homo sapiens, HC-1): > 10 µM | IC50 (KM12; Homo sapiens, KM12): > 10 µM | IC50 (SNU1): > 10 µM | IC50 (SJSA-1; Homo sapiens, SJSA-1): > 10 µM | IC50 (NCI-H1838; Homo sapiens, NCI-H1838): > 10 µM | IC50 (ES3; Homo sapiens, ES3): > 10 µM | IC50 (SK-NEP-1; Homo sapiens, SK-NEP-1): > 10 µM | IC50 (SW684; Homo sapiens, SW684): > 10 µM | IC50 (NCI-H226; Homo sapiens, NCI-H226): > 10 µM | IC50 (LS-411N; Homo sapiens, LS-411N): > 10 µM | IC50 (ES5; Homo sapiens, ES5): > 10 µM | IC50 (EC-GI-10; Homo sapiens, EC-GI-10): > 10 µM | IC50 (MFM-223; Homo sapiens, MFM-223): > 10 µM | IC50 (A3-KAW; Homo sapiens, A3-KAW): > 10 µM | IC50 (ES4; Homo sapiens, ES4): > 10 µM | IC50 (KNS-81-FD; Homo sapiens, KNS-81-FD): > 10 µM | IC50 (NOS-1; Homo sapiens, NOS-1): > 10 µM | IC50 (HAL-01; Homo sapiens, HAL-01): > 10 µM | IC50 (COLO-684; Homo sapiens, COLO-684): > 10 µM | IC50 (TE-10; Homo sapiens, TE-10): > 10 µM | IC50 (CAS-1; Homo sapiens, CAS-1): > 10 µM | IC50 (LB771-HNC; Homo sapiens, LB771-HNC): > 10 µM | IC50 (DSH1; Homo sapiens, DSH1): > 10 µM | IC50 (MOLT-16; Homo sapiens, MOLT-16): > 10 µM | IC50 (SK-LMS-1; Homo sapiens, SK-LMS-1): > 10 µM | IC50 (EKVX; Homo sapiens, EKVX): > 10 µM | IC50 (COLO-800; Homo sapiens, COLO-800): > 10 µM | IC50 (HD-MY-Z; Homo sapiens, HD-MY-Z): > 10 µM | IC50 (KS-1; Homo sapiens, KS-1): > 10 µM | IC50 (LS-1034; Homo sapiens, LS-1034): > 10 µM | IC50 (TK-10; Homo sapiens, TK-10): > 10 µM | IC50 (KLE; Homo sapiens, KLE): > 10 µM

CISPLATIN
IC50 (MV4-11; mv-4-11): 3.46 µM | IC50 (HEL; hel): 1.39 µM | IC50 (ES6; es6): 21.3 µM | IC50 (J-RT3-T3-5; j-rt3-t3-5): 148 µM | IC50 (D283 Med; d283 med): 5.85 µM | IC50 (ATN-1; atn-1): 18.6 µM | IC50 (CTV-1; ctv-1): 34 µM | IC50 (LB373-MEL-D; lb373-mel-d): 11 µM | IC50 (TE-11; te-11): 16.4 µM | IC50 (NTERA-2-cl-D1; ntera-2-cl-d1): 0.848 µM | IC50 (LU-139; lu-139): 95.6 µM | IC50 (KNS-42; kns-42): 20.5 µM | IC50 (HC-1; hc-1): 9.5 µM | IC50 (KM12; km12): 114 µM | IC50 (HCC2218; hcc2218): 398 µM | IC50 (SJSA-1; sjsa-1): 23 µM | IC50 (NCI-H1838; nci-h1838): 281 µM | IC50 (ES3; es3): 0.863 µM | IC50 (SK-NEP-1; sk-nep-1): 7.18 µM | IC50 (SW684; sw684): 590 µM | IC50 (NCI-H226; nci-h226): 41.5 µM | IC50 (EOL1; eol1): 38 µM | IC50 (KY821; ky821): 80 µM | IC50 (LS-411N; ls-411n): 66.4 µM | IC50 (NCI-H69; nci-h69): 231 µM | IC50 (ES5; es5): 3.32 µM | IC50 (EC-GI-10; ec-gi-10): 13.2 µM | IC50 (MFM-223; mfm-223): 615 µM | IC50 (A3-KAW; a3-kaw): 164 µM | IC50 (ES4; es4): 1.6 µM | IC50 (KNS-81-FD; kns-81-fd): 535 µM | IC50 (NOS-1; nos-1): 147 µM | IC50 (HAL-01; hal-01): 109 µM | IC50 (NCI-H720; nci-h720): 136 µM | IC50 (COLO-684; colo-684): 29.1 µM | IC50 (TE-10; te-10): 158 µM | IC50 (CAS-1; cas-1): 116 µM | IC50 (LB771-HNC; lb771-hnc): 89.8 µM | IC50 (DSH1; dsh1): 145 µM | IC50 (MOLT-16; molt-16): 8.36 µM | IC50 (SK-LMS-1; sk-lms-1): 814 µM | IC50 (EKVX; ekvx): 485 µM | IC50 (COLO-800; colo-800): 20.1 µM | IC50 (HD-MY-Z; hd-my-z): 18 µM | IC50 (KS-1; ks-1): 28.3 µM | IC50 (LS-1034; ls-1034): 22.7 µM | IC50 (TK-10; tk-10): 31 µM | IC50 (KLE; kle): 137 µM
